Marks after values point to notes of the source that are not given here.
What was measured:
Assay type in all cases: in vivo, mice (C57BL/6)
[1] = system: diabetic nephrosis animal models; assay: Histopathological change (H&E) in liver, kidney, pancreas; details: for Kidney: Medullar apoptosis / Kidney: Medullar mineralization / Kidney: NHL / Kidney: bowman's capsule hyperplasia / Kidney: pappillary mineralization / Liver: Apoptosis / Liver: Cytoplasmic glycogen / Liver: Eosinophlic focus of cellular alteration / Liver: Mononuclear cell infiltrate / Liver: NHL / Pancrease: Apoptosis / Pancrease: NHL / Pancrease: islet degeneration / Pancrease: islet hypertrophy / Pancrease: islet, mononuclear cell infillitrate: count in group of 10 animals
Experimental: (§1) STZ (Sigma-aldrich, S0130, 40 mg/kg b.w., in 0.1 M citrate buffer pH 4.5) was intraperitoneally administered to 9-week-old male mice (C57BL/6) once/1 day for 5 days to perform a first disease induction. After 7 weeks of the first induction, a second induction was performed using the same method as the first induction. For 5 days of an STZ administration period for the first induction, 10% sucrose was administered as drinking water. In addition, after 14 days of the second administration, blood glucose levels were confirmed to confirm the induction rate, and the induced animals were separated into groups. Experimental substances (R)-4-{(R)-1-[7-(3,4,5-trimethoxy-phenyl)-[1,6] naphthyridin-5-yloxy]-ethyl}pyrrolidin-2-one (BI-1002494) and cromolyn (OC-101) were administered orally into the stomach at 10 mL/kg using an administration syringe (sonde) before 16:00 daily for 12 weeks at a frequency of 7 days/week at doses shown in Table 1 below, and dexamethasone was orally administered as a positive control substance.
At the end of the observation period, the mice in each group of Example 1 were confirmed to be dead, and the liver, kidney, and pancreas were extracted and fixed with 10% neutral buffered formalin (NBF) in at least 20 times the tissue volume. The fixed tissue was sectioned to a thickness of approximately 4 mm and then produced into a paraffin block through general tissue processing and embedding processes. Thereafter, the tissue was sectioned to a thickness of 4 μm using a rotary microtome, and then H&E staining was performed, and histopathological changes were observed.

[2] = system: diabetic nephrosis animal models; assay: Blood indoxyl sulfate by LC MS/MS; details: after observation period, fasted
Experimental: as §1
After the observation period for mice of each group in Example 1 was terminated, all surviving animals were fasted in the same manner as when measuring blood glucose levels, and then anesthetized by inhaling isoflurane, and blood was collected from the abdominal vena cava through laparotomy. After the blood collection was completed, the veins and arteries were cut under anesthesia and exsanguinated. The collected blood was left at room temperature for 30 minutes or more and then centrifuged at 3,000 rpm for 20 minutes. Thereafter, glucose, Blood urea nitrogen (BUN), and creatinine were analyzed using an automated blood biochemistry analyzer (Hitachi 3100, Hitachi Co. Ltd., Japan). Indoxyl sulfate (a substance that was mainly produced in the intestines to cause renal injury, and a substance that caused end-stage renal failure by advancing renal function damage in patients with renal failure during hemodialysis) was analyzed using LC MS/MS. In addition, blood insulin was analyzed according to a method represented by a commercial Mouse Insulin ELISA KIT (#AKRIN-011T, Sibayagi Co. Ltd., Japan).

[3] = Body weights of mice in diabetic nephrosis model
Experimental: as §1

[4] = administered group (12.5, 25, 50 mg/kg)

COc1cc(-c2cc3ncccc3c(O[C@H](C)[C@H]3CNC(=O)C3)n2)cc(OC)c1OC [BI-1002494, (R)-4-{(R)-1-[7-(3,4,5-trimethoxy-phenyl)-[1,6]naphthyridin-5-yloxy]-ethyl}pyrrolidin-2-one]
Kidney: Medullar apoptosis ([1]; G4, 12.5 mg/kg oral): 3 | Kidney: Medullar mineralization ([1]; G4, 12.5 mg/kg oral): 0 | Kidney: NHL ([1]; G4, 12.5 mg/kg oral): 7 | Kidney: bowman's capsule hyperplasia ([1]; G4, 12.5 mg/kg oral): 0 | Kidney: pappillary mineralization ([1]; G4, 12.5 mg/kg oral): 0 | Liver: Apoptosis ([1]; G4, 12.5 mg/kg oral): 2 | Liver: Cytoplasmic glycogen ([1]; G4, 12.5 mg/kg oral): 1 | Liver: Eosinophlic focus of cellular alteration ([1]; G4, 12.5 mg/kg oral): 0 | Liver: Mononuclear cell infiltrate ([1]; G4, 12.5 mg/kg oral): 1 | Liver: NHL ([1]; G4, 12.5 mg/kg oral): 7 | Pancrease: Apoptosis ([1]; G4, 12.5 mg/kg oral): 1 | Pancrease: NHL ([1]; G4, 12.5 mg/kg oral): 5 | Pancrease: islet degeneration ([1]; G4, 12.5 mg/kg oral): 2 | Pancrease: islet hypertrophy ([1]; G4, 12.5 mg/kg oral): 1 | Pancrease: islet, mononuclear cell infillitrate ([1]; G4, 12.5 mg/kg oral): 1 | Kidney: Medullar apoptosis ([1]; G5, 25 mg/kg oral): 2 | Kidney: Medullar mineralization ([1]; G5, 25 mg/kg oral): 1 | Kidney: NHL ([1]; G5, 25 mg/kg oral): 7 | Kidney: bowman's capsule hyperplasia ([1]; G5, 25 mg/kg oral): 0 | Kidney: pappillary mineralization ([1]; G5, 25 mg/kg oral): 0 | Liver: Apoptosis ([1]; G5, 25 mg/kg oral): 3 | Liver: Cytoplasmic glycogen ([1]; G5, 25 mg/kg oral): 0 | Liver: Eosinophlic focus of cellular alteration ([1]; G5, 25 mg/kg oral): 0 | Liver: Mononuclear cell infiltrate ([1]; G5, 25 mg/kg oral): 2 | Liver: NHL ([1]; G5, 25 mg/kg oral): 7 | Pancrease: Apoptosis ([1]; G5, 25 mg/kg oral): 0 | Pancrease: NHL ([1]; G5, 25 mg/kg oral): 8 | Pancrease: islet degeneration ([1]; G5, 25 mg/kg oral): 1 | Pancrease: islet hypertrophy ([1]; G5, 25 mg/kg oral): 1 | Pancrease: islet, mononuclear cell infillitrate ([1]; G5, 25 mg/kg oral): 0 | Kidney: Medullar apoptosis ([1]; G6/G7, 50 mg/kg oral): 1 | Kidney: Medullar mineralization ([1]; G6/G7, 50 mg/kg oral): 2 | Kidney: NHL ([1]; G6/G7, 50 mg/kg oral): 7 | Kidney: bowman's capsule hyperplasia ([1]; G6/G7, 50 mg/kg oral): 0 | Kidney: pappillary mineralization ([1]; G6/G7, 50 mg/kg oral): 0 | Liver: Apoptosis ([1]; G6/G7, 50 mg/kg oral): 2 | Liver: Cytoplasmic glycogen ([1]; G6/G7, 50 mg/kg oral): 0 | Liver: Eosinophlic focus of cellular alteration ([1]; G6/G7, 50 mg/kg oral): 0 | Liver: Mononuclear cell infiltrate ([1]; G6/G7, 50 mg/kg oral): 1 | Liver: NHL ([1]; G6/G7, 50 mg/kg oral): 8 | Pancrease: Apoptosis ([1]; G6/G7, 50 mg/kg oral): 0 | Pancrease: NHL ([1]; G6/G7, 50 mg/kg oral): 7 | Pancrease: islet degeneration ([1]; G6/G7, 50 mg/kg oral): 1 | Pancrease: islet hypertrophy ([1]; G6/G7, 50 mg/kg oral): 2 | Pancrease: islet, mononuclear cell infillitrate ([1]; G6/G7, 50 mg/kg oral): 0 | Cytoplasmic glycogen in the liver [1, 4]: reduced in the liver | Medullar apoptosis in the kidney [1, 4]: reduced in the kidney in a dose-dependent manner | Indoxyl sulfate, Mean ([2]; 12.5 mg/kg/day oral): 2.2 µg/mL | Indoxyl sulfate, Mean ([2]; 25 mg/kg/day oral): 2.2 µg/mL | Indoxyl sulfate, Mean ([2]; 50 mg/kg/day oral): 1.9 µg/mL | Body weight compared to the disease control group ([3]; 12.5 mg/kg administered group, after week 5 of administration): statistically significantly increased | Body weight, Mean ([3]; 12.5 mg/kg/day oral, week 0): 24 g | Body weight, Mean ([3]; 12.5 mg/kg/day oral, week 1): 23.7 g | Body weight, Mean ([3]; 12.5 mg/kg/day oral, week 2): 23.8 g | Body weight, Mean ([3]; 12.5 mg/kg/day oral, week 3): 24.1 g | Body weight, Mean ([3]; 12.5 mg/kg/day oral, week 4): 24.3 g | Body weight, Mean ([3]; 12.5 mg/kg/day oral, week 5): 24.2^# | Body weight, Mean ([3]; 12.5 mg/kg/day oral, week 6): 24.4^# | Body weight, Mean ([3]; 12.5 mg/kg/day oral, week 7): 24.3^# | Body weight, Mean ([3]; 12.5 mg/kg/day oral, week 8): 24.2^# | Body weight, Mean ([3]; 12.5 mg/kg/day oral, week 10): 23.8^# | Body weight compared to the disease control group ([3]; 25 mg/kg administered group, after week 8): statistically significantly increased | Body weight, Mean ([3]; 25 mg/kg/day oral, week 0): 23.8 g | Body weight, Mean ([3]; 25 mg/kg/day oral, week 1): 23.5 g | Body weight, Mean ([3]; 25 mg/kg/day oral, week 2): 23.7 g | Body weight, Mean ([3]; 25 mg/kg/day oral, week 3): 23.9 g | Body weight, Mean ([3]; 25 mg/kg/day oral, week 4): 23.9 g | Body weight, Mean ([3]; 25 mg/kg/day oral, week 5): 24 g | Body weight, Mean ([3]; 25 mg/kg/day oral, week 6): 23.9 g | Body weight, Mean ([3]; 25 mg/kg/day oral, week 7): 24 g | Body weight, Mean ([3]; 25 mg/kg/day oral, week 8): 24.0^# | Body weight, Mean ([3]; 25 mg/kg/day oral, week 10): 23.7^# | Body weight compared to the disease control group ([3]; 50 mg/kg administered group, after week 8): statistically significantly increased | Body weight, Mean ([3]; 50 mg/kg/day oral, week 0): 23.9 g | Body weight, Mean ([3]; 50 mg/kg/day oral, week 1): 23.6 g | Body weight, Mean ([3]; 50 mg/kg/day oral, week 2): 23.8 g | Body weight, Mean ([3]; 50 mg/kg/day oral, week 3): 23.8 g | Body weight, Mean ([3]; 50 mg/kg/day oral, week 4): 23.8 g | Body weight, Mean ([3]; 50 mg/kg/day oral, week 5): 23.9 g | Body weight, Mean ([3]; 50 mg/kg/day oral, week 6): 23.9 g | Body weight, Mean ([3]; 50 mg/kg/day oral, week 7): 24 g | Body weight, Mean ([3]; 50 mg/kg/day oral, week 8): 23.9^# | Body weight, Mean ([3]; 50 mg/kg/day oral, week 10): 23.7^#

Reference: patent US20240197695A1, “COMPOUND FOR PREVENTION OR TREATMENT OF KIDNEY DISEASE” (ONCOCROSS CO.,LTD, priority 2021, published 2024)
